Source: US20230062278A1, “COMPOUNDS FOR THE TREATMENT OF MYELOFIBROSIS” (ACTUATE THERAPEUTICS, INC., priority 2019, published 2023)

Legend:
[1] = tested on: peripheral blood mononuclear cells from MF patients; test: ex vivo colony assay in methylcellulose, primary cells from MF patients; type: cell-based, human
Experimental: (§1) In order to study the effects of 9-ING-41 (alone and in combination with Ruxolitinib) on growth and proliferation in MF, ex vivo colony assays were conducted using primary cells from patients with previously untreated MF and normal bone marrow. The experiments were designed to assess the number, size, and morphology of stem/progenitor cells present in blood both with and without treatment.
(§2) Peripheral blood mononuclear cells from MF patients and bone marrow from healthy patients (control) were plated in methylcellulose in duplicate, containing cytokines, in the presence of either DMSO only, 9-ING-41 only, or a combination of 9-ING-41 and Ruxolitinib (0.05uM). Colonies were counted ten days later, and colony growth frequency, distribution, and morphology were calculated.

[2] = tested on: bone marrow from healthy patients; test: ex vivo colony assay in methylcellulose, normal bone marrow (control); type: cell-based, human; settings: 9-ING-41 alone
Experimental: as §1, §2

[3] = tested on: renal cell carcinoma cell lines; settings: renal cell carcinoma cell lines (Pal 2014); cited from earlier work

## Cn1cc(C2=C(c3coc4ccc(F)cc34)C(=O)NC2=O)c2cc3c(cc21)OCO3 [9-ING-41, 3-(5-fluorobenzofuran-3-yl)-4-(5-methyl-5H-[1,3]dioxolo[4,5-f]indol-7-yl)pyrrole-2,5-dione]
[1]; 9-ING-41 only, MF cases as compared to normal, counted after ten days, FIGS. 1A, 1D, 2A, 2C
  primitive granulocytic/erythroid/macrophage/monocyte (GEMM) colony growth: increased relative to 9-ING-41 concentration
[1]; MF cases 1 and 2, Ruxolitinib 0.05 µM where combined
  size and presence of primitive colonies: increase in very large, fully differentiated primitive colonies
[1]; after addition of 9-ING-41, colonies counted ten days after plating, vs DMSO
  presence of erythroid (BFU-E), granulocytic (CFU-G) and granulocytic/monocytic (CFU-GM) colonies: remained proportionally the same
[2]
  colony size: modest increase in colony size
[3]
  antiproliferative activity: cell-cycle effect: G0-G1 and G2-M phase arrest
